The subject of data set [1] is Rattus norvegicus. In words: Anticonvulsant activity against PTZ-induced kindling Wistar rat model assessed as seizure latency at 30 mg/kg, ip. The data set is classed as functional. The following applies: route intraperitoneal.
For data set [2], the system named is Rattus norvegicus. Briefly: Anticonvulsant activity against PTZ-induced kindling Wistar rat model assessed as duration of behavirol seizure at 30 mg/kg, ip. Format: functional. As to conditions: route intraperitoneal.
The test system of data set [3] is Rattus norvegicus. Briefly: Anticonvulsant activity against PTZ-induced kindling Wistar rat model assessed as duration of behavirol seizure at 200 mg/kg, ip. Format: functional. The following applies: route intraperitoneal.
Data set [4] concerns Rattus norvegicus. In words: Anticonvulsant activity against PTZ-induced kindling Wistar rat model assessed as duration of behavirol seizure at 100 mg/kg, ip. The data set is classed as functional. As to conditions: route intraperitoneal.
In data set [5] the test system is Rattus norvegicus. In words: Anticonvulsant activity against PTZ-induced kindling Wistar rat model assessed as seizure latency at 100 mg/kg, ip. The following applies: route intraperitoneal. The data set is classed as functional.
Data set [6] relates to Rattus norvegicus. Briefly: Anticonvulsant activity against PTZ-induced kindling Wistar rat model assessed as seizure latency at 200 mg/kg, ip. The data set is classed as functional. The following applies: route intraperitoneal.
The subject of data set [7] is Rattus norvegicus. Briefly: Neurotoxicity in Wistar rat assessed as motor impairment at 30 mg/kg, ip by rotarod test. As to conditions: in vivo. Format: toxicity, organism-based. The arrangement: dose 30 mg/kg, route intraperitoneal.
Data set [8] has as its system Rattus norvegicus. Briefly: Neurotoxicity in Wistar rat at 30 mg/kg, ip by rotarod test. Format: toxicity, organism-based. The arrangement: dose 30 mg/kg, route intraperitoneal. The following applies: in vivo.
Data set [9] concerns Rattus norvegicus. In words: Neurotoxicity in Wistar rat assessed as motor impairment at 100 mg/kg, ip by rotarod test. The data set is classed as toxicity, organism-based. Also on record: dose 100 mg/kg, route intraperitoneal. As to conditions: in vivo.

Molecules are shown by their SMILES.

In the case of `Brc1ccc(CO/N=C2\c3ccccc3OCC2n2ccnc2)cc1.O=[N+]([O-])O` (racemic), the Time worked out at 261 s in [1] and 56.5 s in data set [2].
Turning to `Clc1ccc(CO/N=C2\c3ccccc3OCC2n2ccnc2)cc1Cl.O=[N+]([O-])O` (racemic), the Time in [1] worked out at 266 s; in [2] it was 51.8 s.
Regarding `O=[N+]([O-])O.c1ccc(CO/N=C2\c3ccccc3OCC2n2ccnc2)cc1` (racemic), the values for the Time in [1] and in data set [2] were 288 s and 50.8 s, respectively.
On to `Brc1ccc(CO/N=C2/c3ccccc3OCC2n2ccnc2)cc1.O=[N+]([O-])O` (racemic), for which the Time in data set [1] worked out at 268 s; in data set [2], 54.8 s.
In the case of `Clc1ccc(CO/N=C2/c3ccc(Cl)cc3OCC2n2ccnc2)cc1.O=[N+]([O-])O` (racemic), the Time worked out at 467 s in data set [1] and 47 s in data set [2].
As to `CC1Oc2ccccc2/C(=N/OCc2ccccc2)C1n1ccnc1.O=[N+]([O-])O` (racemic), the Time in [1] is listed as 259 s; in data set [2], 52.7 s.
In the case of `O=[N+]([O-])O.c1ccc(CO/N=C2/c3ccccc3OCC2n2ccnc2)cc1` (racemic), the values for the Time in [1] and in [2] were 274 s and 49.8 s, respectively.
The corresponding values for `CC1Oc2cc(Cl)ccc2/C(=N/OCc2ccccc2)C1n1ccnc1.O=[N+]([O-])O` (racemic) are 282 s and 50.7 s.
Regarding `Clc1ccc(CO/N=C2\c3ccccc3OCC2n2ccnc2)c(Cl)c1.O=[N+]([O-])O` (racemic), the results for the Time in [1] and in data set [2] were 293 s and 49.3 s, respectively.
In the case of `Clc1ccc(CO/N=C2/c3ccccc3OCC2n2ccnc2)cc1.O=[N+]([O-])O` (racemic), the Time in [1] came to 237 s; in data set [2], 52 s.
In the case of `CC1Oc2ccccc2/C(=N/OCc2ccc(Br)cc2)C1n1ccnc1.O=[N+]([O-])O` (racemic), the Time was found to be 305 s in data set [1] and 51.3 s in data set [2].
Turning to `Clc1ccc2c(c1)OCC(n1ccnc1)/C2=N\OCc1ccccc1.O=[N+]([O-])O` (racemic), the Time came out at 323 s in data set [1] and 46.7 s in data set [2].
Turning to `CC1Oc2ccccc2/C(=N/OCc2ccc(Cl)cc2Cl)C1n1ccnc1.O=[N+]([O-])O` (racemic), the Time in data set [1] is reported as 644 s; in data set [2], 42.8 s.
As to `Clc1ccc(CO/N=C2\c3ccccc3OCC2n2ccnc2)cc1.O=[N+]([O-])O` (racemic), the figures for the Time in data set [1] and in data set [2] were 258 s and 51 s, respectively.
In the case of `CC1Oc2ccccc2/C(=N/OCc2ccc(Cl)cc2)C1n1ccnc1.O=[N+]([O-])O` (racemic), the Time in [1] was determined as 286 s; in data set [2], 49.7 s.
Regarding `CC1Oc2ccccc2/C(=N/OCc2ccc(Cl)c(Cl)c2)C1n1ccnc1.O=[N+]([O-])O` (racemic), the Time in [1] came to 367 s; in data set [2], 47.5 s.
For `CCCC(CCC)C(=O)[O-].[Na+]` [VALPROATE SODIUM], the Time in [3] came to 26.5 s; in data set [4] it was 40.5 s; in data set [5], 817 s; in [6] it was 900 s.
With `Clc1ccc2c(c1)OCC(n1ccnc1)/C2=N\OCc1ccc(Cl)c(Cl)c1.O=[N+]([O-])O` (racemic), the Time turned out to be 271 s in data set [1] and 48.5 s in data set [2].
The corresponding values for `Clc1ccc(CO/N=C2/c3ccccc3OCC2n2ccnc2)cc1Cl.O=[N+]([O-])O` (racemic) are 285 s and 50.3 s.
As for `Clc1ccc(CO/N=C2/c3ccc(Cl)cc3OCC2n2ccnc2)c(Cl)c1.O=[N+]([O-])O` (racemic), the Time in data set [1] came out at 715 s; in [2] it was 40.3 s. For the same molecule, the Activity in [7] is given as 25%; in data set [8] it was “Non-toxic”.
`CC1Oc2ccccc2/C(=N/OCc2cccc(F)c2)C1n1ccnc1.O=[N+]([O-])O` (racemic): the Time in data set [1] is listed as 321 s; in data set [2], 51.5 s.
The corresponding values for `CC1Oc2cc(Cl)ccc2/C(=N/OCc2ccc(Cl)cc2)C1n1ccnc1.O=[N+]([O-])O` (racemic) are 286 s and 45.5 s.
With `CC1Oc2cc(Cl)ccc2/C(=N/OCc2ccc(Cl)cc2Cl)C1n1ccnc1.O=[N+]([O-])O` (racemic), the Activity in data set [9] is recorded as 50%; in data set [8], “Non-toxic”. The Time in data set [1] is 776 s; in data set [2], 342 s.
For `CC1Oc2ccccc2/C(=N/OCc2ccc(F)cc2)C1n1ccnc1.O=[N+]([O-])O` (racemic), the Time in data set [1] came to 263 s; in data set [2], 52.3 s.
For the molecule `Clc1ccc(CO/N=C2/c3ccccc3OCC2n2ccnc2)c(Cl)c1.O=[N+]([O-])O` (racemic), the Time is on record as 358 s in data set [1] and 49.2 s in data set [2].
As to `CC1Oc2ccccc2/C(=N/OCc2ccccc2F)C1n1ccnc1.O=[N+]([O-])O` (racemic), the results for the Time in data set [1] and in data set [2] were 254 s and 51.7 s, respectively.

For the origin of these results see ChEMBL document CHEMBL1641496, “Imidazolylchromanone oxime ethers as potential anticonvulsant agents: Anticonvulsive evaluation in PTZ-kindling model of epilepsy and SAR study” (Bioorg Med Chem Lett, 2011).
